Experimental data as given in patent US20240425478A1, “CYCLOPENTYLPYRAZOLE CDK2 INHIBITORS” (Genentech, Inc., priority 2021, published 2024).
Read-outs that look alike come from different tables or passages of the source.

Assays:
[1] = test system: OVISE (JCRB1043, CCNE1-amplified); test: OVISE EdU incorporation cell proliferation assay (CDK2-dependent); format: cell-based; conditions: for IC50 / FS SKOV-3/OVISE / FS p-H3/OVISE: Table O; for IC50: cellular assay, read-out: CDK2 OVISE IC50; for FS SKOV-3/OVISE / FS p-H3/OVISE: fold selectivity; for FS SKOV-3/OVISE: cellular SKOV-3 IC50 over OVISE IC50; for FS p-H3/OVISE: cellular p-H3 IC50 over OVISE IC50
In short: (§1)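 Cells in RPMI/10% FBS dosed with compound (0.5% DMSO final) for 16 h at 37 °C, 5% CO2, then EdU 0.5 μM final for 8 h before fixation and imaging. IC50 from 4-parameter logistic fit of EdU-positive cell fraction versus dose.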

[2] = biological target: T1, Cyclin Dependent Kinase 2/Cyclin E1 (CDK2-cycE1) (Homo sapiens, UniProt P24941); test: CDK2-cycE1 TR-FRET (LANCE) enzyme assay; format: biochemical; conditions: for FS CDK1/CDK2 / FS CDK4/CDK2: fold selectivity; for FS CDK1/CDK2: enzymatic CDK1 Ki over CDK2 Ki; for FS CDK4/CDK2: enzymatic CDK4 Ki over CDK2 Ki
T1 construct: purchased ProQinase 0050-0055-1
In short: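 Compound dose responses pre-incubated 30 min with CDK2-cycE1 in 50 mM HEPES pH 7.5, 10 mM MgCl2, 2 mM TCEP, 0.05% BGG, 0.01% Brij 35. Reaction quenched with EDTA (15 mM final), phospho-MBP detected by Eu-anti-phospho-MBP TR-FRET (acceptor/donor ratio). Inhibition constants from Morrison equation.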

[3] = biological target: T2, Cyclin Dependent Kinase 1/Cyclin A2 (CDK1-cycA2) (Homo sapiens, UniProt P06493); test: CDK1-cycA2 TR-FRET (Lance) enzyme assay; format: biochemical; conditions: for Ki: Table O, enzymatic assay; for FS CDK1/CDK2: fold selectivity, enzymatic Ki ratio
T2 construct: purchased ProQinase 0134-0054-1
In short: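 Human CDK1/cyclin A2 pre-incubated 30 min with compound dose responses in 50 mM HEPES pH 7.5, 10 mM MgCl2, 2 mM TCEP, 0.05% BGG, 0.01% Brij 35. Reaction quenched with EDTA (15 mM final); TR-FRET readout using Eu-anti-phospho-4E-BP1, acceptor/donor ratio. Inhibition constants from Morrison equation.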

[4] = test system: SKOV-3 (ATCC HTB-77); test: SKOV-3 EdU incorporation cell proliferation assay (CDK4/6-dependent); format: cell-based; conditions: for IC50: Homo sapiens, SK-OV-3, Table O, cellular assay, read-out: CDK4/6 SKOV-3 IC50; for FS SKOV-3/OVISE: fold selectivity, cellular IC50 ratio
In short: as §1

[5] = biological target: T3, Cyclin Dependent Kinase 4/Cyclin D3 (CDK4-cycD3) (Homo sapiens, UniProt P11802); test: CDK4-cycD3 TR-FRET (LANCE) enzyme assay; format: biochemical; conditions: for Ki: Table O, enzymatic assay; for FS CDK4/CDK2: fold selectivity, enzymatic Ki ratio
T3 construct: purchased Carna Biosciences 04-105
In short: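 Compound dose responses pre-incubated 30 min with enzyme mix in 50 mM HEPES pH 7.5, 10 mM MgCl2, 2 mM TCEP, 0.05% BGG, 0.01% Brij 35. Reaction quenched with EDTA (15 mM final); Eu-anti-phospho-4E-BP1 TR-FRET detection, acceptor/donor ratio. Ki derived by Morrison equation.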

[6] = test system: HCT116 cells; test: p-H3 HCT-116 mitotic release cell proliferation assay (cellular CDK1); format: cell-based; conditions: Homo sapiens, HCT-116; Table O, cellular assay; read-out: CDK1 p-H3 IC50
In short: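 HCT116 cells arrested 16 h with 500 nM nocodazole, then exposed to compound for 4 h at 37 °C (0.1% DMSO). Lysates read by HTRF/FRET with donor and acceptor phospho-Histone H3 (Ser10) antibodies, ≥2 h at room temperature; CDK1 inhibition seen as loss of p-H3 on mitotic release.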

[7] = Table O, enzymatic assay, read-out: CDK2 Ki

T3 sequence (P11802 whole entry): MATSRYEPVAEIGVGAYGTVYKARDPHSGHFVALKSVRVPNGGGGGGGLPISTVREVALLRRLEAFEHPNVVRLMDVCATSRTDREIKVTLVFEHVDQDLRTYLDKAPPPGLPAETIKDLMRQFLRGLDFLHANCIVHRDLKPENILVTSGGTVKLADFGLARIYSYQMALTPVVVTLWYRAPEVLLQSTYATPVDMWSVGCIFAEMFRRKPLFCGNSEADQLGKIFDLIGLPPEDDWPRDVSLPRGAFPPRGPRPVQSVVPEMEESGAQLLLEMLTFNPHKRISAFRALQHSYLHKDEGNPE
T3 sequence (P30281 whole entry partner): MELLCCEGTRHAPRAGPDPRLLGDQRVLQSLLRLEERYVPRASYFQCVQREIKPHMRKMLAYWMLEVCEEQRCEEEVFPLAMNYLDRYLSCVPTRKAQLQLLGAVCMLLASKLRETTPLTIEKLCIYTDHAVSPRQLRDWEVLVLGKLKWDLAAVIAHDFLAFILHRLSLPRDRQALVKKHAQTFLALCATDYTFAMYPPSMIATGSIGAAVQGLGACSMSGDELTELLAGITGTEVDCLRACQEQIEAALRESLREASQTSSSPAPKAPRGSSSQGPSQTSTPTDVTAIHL
T2 sequence (P06493 whole entry): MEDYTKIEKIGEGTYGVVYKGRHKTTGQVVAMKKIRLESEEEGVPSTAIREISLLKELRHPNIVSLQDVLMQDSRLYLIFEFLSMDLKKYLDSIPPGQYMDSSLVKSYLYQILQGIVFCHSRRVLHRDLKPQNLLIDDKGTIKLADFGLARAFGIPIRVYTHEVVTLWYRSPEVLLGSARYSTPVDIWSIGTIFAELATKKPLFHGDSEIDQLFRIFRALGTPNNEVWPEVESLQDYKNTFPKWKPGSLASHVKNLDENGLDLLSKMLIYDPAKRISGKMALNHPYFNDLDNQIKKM
T2 sequence (P20248 whole entry partner): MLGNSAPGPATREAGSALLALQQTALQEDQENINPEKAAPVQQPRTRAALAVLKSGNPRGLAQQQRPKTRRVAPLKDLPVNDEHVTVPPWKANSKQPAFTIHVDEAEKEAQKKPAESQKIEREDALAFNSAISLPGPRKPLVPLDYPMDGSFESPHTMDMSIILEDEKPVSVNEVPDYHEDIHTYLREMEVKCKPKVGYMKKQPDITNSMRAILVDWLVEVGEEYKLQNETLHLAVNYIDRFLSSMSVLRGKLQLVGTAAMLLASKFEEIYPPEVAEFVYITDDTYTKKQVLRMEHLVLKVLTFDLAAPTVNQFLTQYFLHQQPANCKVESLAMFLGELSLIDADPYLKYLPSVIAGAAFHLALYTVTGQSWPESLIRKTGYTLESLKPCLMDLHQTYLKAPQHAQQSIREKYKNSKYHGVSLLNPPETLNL

## Cn1nc(Nc2cc([C@H]3CC[C@@H](OC(=O)NC(C)(C)C)C3)[nH]n2)ccc1=O [Example 6C, (1R,3S)-3-(3-((1-methyl-6-oxo-1,6-dihydropyridazin-3-yl)amino)-1H-pyrazol-5-yl)cyclopentyl tert-butylcarbamate]
[1]; CDK2 OVISE cellular assay data
  CDK2 cell potency compared with Comparator E: more potent CDK2 cell inhibitors compared to Comparator E
[1]
  IC50: 30 nM
  FS SKOV-3/OVISE: 50
  FS p-H3/OVISE: 0.087
[1]; Table R, in brackets after OVISE IC50
  CDK2 OVISE IC50 fold change in potency versus Comparator D: 127 fold
[1]; Table S, in brackets after OVISE IC50
  CDK2 OVISE IC50 fold change in potency versus Comparator E: 5.7 fold
[2]; [7]
  Ki: < 0.1 nM
[2]; Table O
  FS CDK1/CDK2: >47
  FS CDK4/CDK2: >584
[2]; Table R, enzymatic assay, read-out: CDK2 Ki
  Ki: < 0.1 nM
[2]; Table R, in brackets after CDK2 Ki
  CDK2 Ki fold change in potency versus Comparator D: 27 fold
[2]; Table S, enzymatic assay, read-out: CDK2 Ki
  Ki: < 0.1 nM
[2]; Table S, in brackets after CDK2 Ki
  CDK2 Ki fold change in potency versus Comparator E: 5.2 fold
[3]
  Ki: 3.6 nM
[3]; Table R
  FS CDK1/CDK2 increased over Comparator D, (+) sign: (+)
  FS CDK1/CDK2: > 47
[3]; Table S
  FS CDK1/CDK2 increased over Comparator E, (+) sign: (+)
  FS CDK1/CDK2: > 47
[4]
  IC50: 1500 nM
[4]; SKOV-3/OVISE fold-selectivity cellular assay data
  selectivity for CDK2 over CDK4 compared with Comparator E: increase in selectivity for CDK2 over CDK4
[4]; Table R
  FS SKOV-3/OVISE increased over Comparator D, (+) sign: (+)
  FS SKOV-3/OVISE: 50
[4]; Table S
  FS SKOV-3/OVISE increased over Comparator E, (+) sign: (+)
  FS SKOV-3/OVISE: 50
[5]
  Ki: 45 nM
[5]; Table R
  FS CDK4/CDK2 increased over Comparator D, (+) sign: (+)
  FS CDK4/CDK2: > 584
[5]; Table S
  FS CDK4/CDK2 increased over Comparator E, (+) sign: (+)
  FS CDK4/CDK2: > 584
[6]
  IC50: 26 nM

## CC(CC(F)(F)F)NC(=O)O[C@@H]1CC[C@H](c2cc(Nc3ccc(=O)n(C)n3)n[nH]2)C1 (stereo partly drawn) [Example 6D, (1R,3S)-3-(3-((1-methyl-6-oxo-1,6-dihydropyridazin-3-yl)amino)-1H-pyrazol-5-yl)cyclopentyl (4,4,4-trifluorobutan-2-yl)carbamate]
[1]
  IC50: 77 nM
  FS SKOV-3/OVISE: 56
  FS p-H3/OVISE: 0.94
[2]; [7]
  Ki: 0.21 nM
[2]; Table O
  FS CDK1/CDK2: 17
  FS CDK4/CDK2: 290
[3]
  Ki: 3.6 nM
[4]
  IC50: 4300 nM
[5]
  Ki: 61 nM
[6]
  IC50: 72 nM

## C[C@H](NC(=O)O[C@@H]1CC[C@H](c2cc(Nc3ccc(=O)n(C)n3)n[nH]2)C1)c1ccccc1 [Example 6E, (1R,3S)-3-(3-((1-methyl-6-oxo-1,6-dihydropyridazin-3-yl)amino)-1H-pyrazol-5-yl)cyclopentyl ((S)-1-phenylethyl)carbamate]
[1]
  IC50: 320 nM
  FS SKOV-3/OVISE: 47
  FS p-H3/OVISE: 0.91
[2]; [7]
  Ki: 2.9 nM
[2]; Table O
  FS CDK1/CDK2: 17
  FS CDK4/CDK2: 6.2
[3]
  Ki: 48 nM
[4]
  IC50: 15000 nM
[5]
  Ki: 18 nM
[6]
  IC50: 290 nM

## Cc1nc(C(=O)N(C)C)ccc1Nc1cc([C@H]2CC[C@@H](OC(=O)NC3(C)CC3)C2)[nH]n1 [Example 7, (1R,3S)-3-(3-((6-(dimethylcarbamoyl)-2-methylpyridin-3-yl)amino)-1H-pyrazol-5-yl)cyclopentyl (1-methylcyclopropyl)carbamate]
[1]
  IC50: 58 nM
  FS SKOV-3/OVISE: 66
  FS p-H3/OVISE: 0.86
[2]; [7]
  Ki: 0.36 nM
[2]; Table O
  FS CDK1/CDK2: 64
  FS CDK4/CDK2: 110
[2]; read-out: CDK2 activity / potency (enzymatic assay)
  Ki: ≤ 1 nM
[3]
  Ki: 23 nM
[4]
  IC50: 3800 nM
[5]
  Ki: 38 nM
[6]
  IC50: 50 nM

## Cc1nccnc1Nc1cc([C@H]2CC[C@@H](OC(=O)NC3(C)COC3)C2)[nH]n1 [Example 8B, (1R,3S)-3-(3-((3-methylpyrazin-2-yl)amino)-1H-pyrazol-5-yl)cyclopentyl (3-methyloxetan-3-yl)carbamate]
[1]
  IC50: 87 nM
  FS SKOV-3/OVISE: 34
  FS p-H3/OVISE: 1.6
[2]; [7]
  Ki: 0.66 nM
[2]; Table O
  FS CDK1/CDK2: 79
  FS CDK4/CDK2: 212
[3]
  Ki: 52 nM
[4]
  IC50: 3000 nM
[5]
  Ki: 140 nM
[6]
  IC50: 140 nM

## Cc1ncccc1Nc1cc([C@H]2CC[C@@H](OC(=O)NC3(C)COC3)C2)[nH]n1 [Example 8]
[1]
  IC50: 320 nM
  FS SKOV-3/OVISE: 47
  FS p-H3/OVISE: 1.8
[2]; [7]
  Ki: 3.1 nM
[2]; Table O
  FS CDK1/CDK2: 52
  FS CDK4/CDK2: 213
[3]
  Ki: 160 nM
[4]
  IC50: 15000 nM
[5]
  Ki: 660 nM
[6]
  IC50: 560 nM

## Cc1cc(Nc2cc([C@H]3CC[C@@H](OC(=O)NC45CC(C4)C5)C3)[nH]n2)ccn1 [Example 9, (1R,3S)-3-(3-((2-methylpyridin-4-yl)amino)-1H-pyrazol-5-yl)cyclopentyl bicyclo[1.1.1]pentan-1-ylcarbamate]
[1]
  IC50: 170 nM
  FS SKOV-3/OVISE: 19
  FS p-H3/OVISE: 1.2
[2]; [7]
  Ki: 1.9 nM
[2]; Table O
  FS CDK1/CDK2: 32
  FS CDK4/CDK2: 79
[3]
  Ki: 61 nM
[4]
  IC50: 3300 nM
[5]
  Ki: 150 nM
[6]
  IC50: 210 nM

## Cn1cnc(Nc2cc([C@H]3CC[C@@H](OC(=O)NC45CC(C4)C5)C3)[nH]n2)cc1=O [Example 9B, (1R,3S)-3-(3-((1-methyl-6-oxo-1,6-dihydropyrimidin-4-yl)amino)-1H-pyrazol-5-yl)cyclopentyl bicyclo[1.1.1]pentan-1-ylcarbamate]
[1]
  IC50: 33 nM
  FS SKOV-3/OVISE: 14
  FS p-H3/OVISE: 1.4
[2]; [7]
  Ki: 0.35 nM
[2]; Table O
  FS CDK1/CDK2: 34
  FS CDK4/CDK2: 60
[3]
  Ki: 12 nM
[4]
  IC50: 470 nM
[5]
  Ki: 21 nM
[6]
  IC50: 46 nM

## CNC(=O)c1cc(C)c(Nc2cc([C@H]3CC[C@@H](OC(=O)NC45CC(C4)C5)C3)[nH]n2)cn1 [Example 9C, (1R,3S)-3-(3-((4-methyl-6-(methylcarbamoyl)pyridin-3-yl)amino)-1H-pyrazol-5-yl)cyclopentyl bicyclo[1.1.1]pentan-1-ylcarbamate]
[1]
  IC50: 180 nM
  FS SKOV-3/OVISE: 51
  FS p-H3/OVISE: 1.0
[2]; [7]
  Ki: 2 nM
[2]; Table O
  FS CDK1/CDK2: 95
  FS CDK4/CDK2: 200
[3]
  Ki: 190 nM
[4]
  IC50: 9100 nM
[5]
  Ki: 400 nM
[6]
  IC50: 180 nM
